Reference: ChEMBL document CHEMBL1139922, “Discovery and structure-activity relationship studies of indole derivatives as liver X receptor (LXR) agonists” (Bioorg Med Chem Lett, 2007)

tested on: HepG2 (Homo sapiens); assay: Ratio of induction of SREBP1c gene expression in HepG2 cells at 10 uM to control; conditions: not given

Row | Structure (SMILES) | Ratio
1 | O=C(O)Cc1cccc(OCCCN(Cc2cccc(C(F)(F)F)c2Cl)CC(c2ccccc2)c2ccccc2)c1 | 5.2

tested on: HepG2; assay: Ratio of induction of lipogenesis in HepG2 cells at 10 uM to control after 24 hrs; assay type: functional, Homo sapiens; conditions: not given

Row | Structure (SMILES) | Ratio
2 | O=C(O)Cc1cccc(OCCCN(Cc2cccc(C(F)(F)F)c2Cl)CC(c2ccccc2)c2ccccc2)c1 | 2.7

target: T1, Oxysterols receptor LXR-beta (Homo sapiens, UniProt P55055); assay: Agonist activity at LXRbeta LBD by HTRF cofactor peptide recruitment assay; assay type: functional; conditions: not given
T1 sequence (P55055 whole entry): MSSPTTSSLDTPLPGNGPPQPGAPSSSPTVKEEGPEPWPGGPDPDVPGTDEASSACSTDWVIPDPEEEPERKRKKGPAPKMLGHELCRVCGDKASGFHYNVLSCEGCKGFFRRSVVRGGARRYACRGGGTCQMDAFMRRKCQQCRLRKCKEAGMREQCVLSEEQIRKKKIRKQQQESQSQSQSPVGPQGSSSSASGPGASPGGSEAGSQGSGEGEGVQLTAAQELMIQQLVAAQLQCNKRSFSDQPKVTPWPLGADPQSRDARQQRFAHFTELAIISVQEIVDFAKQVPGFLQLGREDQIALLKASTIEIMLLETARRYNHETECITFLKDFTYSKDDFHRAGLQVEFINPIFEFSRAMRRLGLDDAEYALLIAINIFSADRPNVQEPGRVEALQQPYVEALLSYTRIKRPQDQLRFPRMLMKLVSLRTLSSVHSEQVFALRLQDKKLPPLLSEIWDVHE

Row | Structure (SMILES) | EC50
3 | CC(C)(C)OC(=O)n1c(-c2ccc3c(c2)CC(NC(=O)Nc2ccccc2)C3)cc2ccccc21 (stereo not given) | 1.5 µM
4 | CC(C)(C)OC(=O)n1c(-c2ccc3c(c2)CC(NC(=O)c2ccccc2O)C3)cc2ccccc21 (stereo not given) | 0.53 µM
5 | COc1ccc2c(c1)cc(-c1ccc3c(c1)CC(NS(=O)(=O)c1ccccc1)C3)n2C(=O)OC(C)(C)C (stereo not given) | 28 µM
6 | COc1ccccc1S(=O)(=O)NC1Cc2ccc(-c3cc4ccccc4n3C(=O)OC(C)(C)C)cc2C1 (stereo not given) | 0.6 µM
7 | O=C(O)Cc1cccc(OCCCN(Cc2cccc(C(F)(F)F)c2Cl)CC(c2ccccc2)c2ccccc2)c1 | 0.035 µM
8 | CC(C)(C)OC(=O)n1c(-c2ccc3c(c2)CC(NS(=O)(=O)c2cccc(C#N)c2)C3)cc2ccccc21 (stereo not given) | 0.46 µM
9 | CC(C)(C)OC(=O)n1c(-c2ccc3c(c2)C[C@H](NS(=O)(=O)c2ccccc2)C3)cc2ccccc21 | 0.66 µM
10 | CC(C)(C)OC(=O)n1c(-c2ccc3c(c2)CC(NS(C)(=O)=O)C3)cc2ccccc21 (stereo not given) | 0.21 µM
11 | CC(C)(C)OC(=O)n1c(-c2ccc3c(c2)CC(NS(=O)(=O)c2ccccc2)C3)cc2ccc(OCc3ccccc3)cc21 (stereo not given) | > 30 µM
12 | CCCCCC(=O)n1c(-c2ccc3c(c2)CC(NS(=O)(=O)c2ccccc2)C3)cc2ccccc21 (stereo not given) | 2.1 µM
13 | Cc1ccc2c(c1)cc(-c1ccc3c(c1)CC(NS(=O)(=O)c1ccccc1)C3)n2C(=O)OC(C)(C)C (stereo not given) | 18 µM
14 | CC(C)(C)OC(=O)n1c(-c2ccc3c(c2)CC(NS(=O)(=O)c2ccccc2)C3)cc2c(O)cccc21 (stereo not given) | > 30 µM
15 | COC(=O)c1ccccc1S(=O)(=O)NC1Cc2ccc(-c3cc4ccccc4n3C(=O)OC(C)(C)C)cc2C1 (stereo not given) | 0.6 µM
16 | CC(C)(C)OC(=O)n1c(-c2ccc3c(c2)CC(NS(=O)(=O)c2ccccc2)C3)cc2cc(F)ccc21 (stereo not given) | 1.5 µM
17 | Cc1noc(C)c1S(=O)(=O)NC1Cc2ccc(-c3cc4ccccc4n3C(=O)OC(C)(C)C)cc2C1 (stereo not given) | 0.13 µM
18 | CC(C)CCOC(=O)n1c(-c2ccc3c(c2)CC(NS(=O)(=O)c2ccccc2)C3)cc2ccccc21 (stereo not given) | 1.3 µM
19 | COC(=O)n1c(-c2ccc3c(c2)CC(NS(=O)(=O)c2ccccc2)C3)cc2ccccc21 (stereo not given) | > 30 µM
20 | CCCCC(C)COC(=O)n1c(-c2ccc3c(c2)CC(NS(=O)(=O)c2ccccc2)C3)cc2ccccc21 (stereo not given) | > 30 µM
21 | CC(C)(C)OC(=O)n1c(-c2ccc3c(c2)C[C@@H](NS(=O)(=O)c2ccccc2)C3)cc2ccccc21 | 0.13 µM
22 | Cc1ccc2cc(-c3ccc4c(c3)CC(NS(=O)(=O)c3ccccc3)C4)n(C(=O)OC(C)(C)C)c2c1 (stereo not given) | 0.3 µM

Row | Structure (SMILES) | EC50
23 | O=S(=O)(NC1Cc2ccc(-c3cc4ccccc4n3S(=O)(=O)c3ccccc3)cc2C1)c1ccccc1 (stereo not given) | > 30 µM
24 | CCS(=O)(=O)NC1Cc2ccc(-c3cc4ccccc4n3C(=O)OC(C)(C)C)cc2C1 (stereo not given) | 0.4 µM
25 | CC(C)(C)OC(=O)n1c(-c2ccc3c(c2)CC(NC(=O)c2ccccc2)C3)cc2ccccc21 (stereo not given) | 0.19 µM
26 | O=C(C1CCCC1)n1c(-c2ccc3c(c2)CC(NS(=O)(=O)c2ccccc2)C3)cc2ccccc21 (stereo not given) | 0.9 µM
27 | CC(C)(C)OC(=O)n1c(-c2ccc3c(c2)CC(NC(=O)c2ccccc2F)C3)cc2ccccc21 (stereo not given) | 0.17 µM
28 | CC(C)(C)OC(=O)n1c(-c2ccc3c(c2)CC(NS(=O)(=O)c2ccccc2C#N)C3)cc2ccccc21 (stereo not given) | 0.06 µM
29 | Cc1ccccc1S(=O)(=O)NC1Cc2ccc(-c3cc4ccccc4n3C(=O)OC(C)(C)C)cc2C1 (stereo not given) | 0.2 µM
30 | CCc1ccc(S(=O)(=O)NC2Cc3ccc(-c4cc5ccccc5n4C(=O)OC(C)(C)C)cc3C2)cc1 (stereo not given) | 0.65 µM
31 | CC(C)(C)OC(=O)n1c(-c2ccc3c(c2)CC(NS(=O)(=O)c2ccccc2Cl)C3)cc2ccccc21 (stereo not given) | 0.76 µM
32 | Cn1c(-c2ccc3c(c2)CC(NS(=O)(=O)c2ccccc2)C3)cc2ccccc21 (stereo not given) | > 30 µM
33 | CC(C)(C)OC(=O)n1c(-c2ccc3c(c2)CC(NS(=O)(=O)c2ccc(-c4ccccc4)cc2)C3)cc2ccccc21 (stereo not given) | 2.1 µM
34 | O=S(=O)(NC1Cc2ccc(-c3cc4ccccc4n3CCc3ccccc3)cc2C1)c1ccccc1 (stereo not given) | > 10 µM
35 | CC(C)(C)OC(=O)n1c(-c2ccc3c(c2)CC(NS(=O)(=O)c2ccccc2F)C3)cc2ccccc21 (stereo not given) | 0.1 µM
36 | COc1ccc2cc(-c3ccc4c(c3)CC(NS(=O)(=O)c3ccccc3)C4)n(C(=O)OC(C)(C)C)c2c1 (stereo not given) | 1.6 µM
37 | CC(C)(C)OC(=O)n1c(-c2ccc3c(c2)CC(NS(=O)(=O)c2ccccc2)C3)cc2cc(OCc3ccccc3)ccc21 (stereo not given) | > 30 µM
38 | O=S(=O)(NC1Cc2ccc(-c3cc4ccccc4[nH]3)cc2C1)c1ccccc1 (stereo not given) | > 30 µM
39 | CC(C)(C)OC(=O)n1c(-c2ccc3c(c2)CC(NS(=O)(=O)c2ccc(C(F)(F)F)cc2)C3)cc2ccccc21 (stereo not given) | 0.73 µM
40 | CC(C)(C)OC(=O)n1c(-c2ccc3c(c2)CC(NS(=O)(=O)c2ccccc2)C3)cc2cc(O)ccc21 (stereo not given) | > 30 µM
41 | CC(C)(C)OC(=O)n1c(-c2ccc3c(c2)CC(NS(=O)(=O)c2ccccc2)C3)cc2c(OCc3ccccc3)cccc21 (stereo not given) | > 30 µM
42 | CC(C)(C)COC(=O)n1c(-c2ccc3c(c2)CC(NS(=O)(=O)c2ccccc2)C3)cc2ccccc21 (stereo not given) | 1.4 µM

Row | Structure (SMILES) | EC50
43 | CC(C)(C)OC(=O)n1c(-c2ccc3c(c2)CC(NS(=O)(=O)Cc2ccccc2)C3)cc2ccccc21 (stereo not given) | 0.52 µM
44 | O=S(=O)(NC1Cc2ccc(-c3cc4ccccc4n3CCCOCc3ccccc3)cc2C1)c1ccccc1 (stereo not given) | > 30 µM
45 | COc1cccc(S(=O)(=O)NC2Cc3ccc(-c4cc5ccccc5n4C(=O)OC(C)(C)C)cc3C2)c1 (stereo not given) | 0.96 µM
46 | CC(C)(C)CC(=O)n1c(-c2ccc3c(c2)CC(NS(=O)(=O)c2ccccc2)C3)cc2ccccc21 (stereo not given) | > 30 µM
47 | Cc1ccc(S(=O)(=O)NC2Cc3ccc(-c4cc5ccccc5n4C(=O)OC(C)(C)C)cc3C2)cc1 (stereo not given) | 0.43 µM
48 | CC(C)(C)OC(=O)n1c(-c2ccc3c(c2)CC(NS(=O)(=O)c2ccccc2C(=O)O)C3)cc2ccccc21 (stereo not given) | 3.35 µM
49 | CC(C)(C)OC(=O)n1c(-c2ccc3c(c2)CC(NS(=O)(=O)c2ccccc2C(F)(F)F)C3)cc2ccccc21 (stereo not given) | 0.8 µM
50 | O=S(=O)(NC1Cc2ccc(-c3cc4ccccc4n3Cc3ccccc3)cc2C1)c1ccccc1 (stereo not given) | > 30 µM
51 | CC(C)(C)OC(=O)n1c(-c2ccc3c(c2)CC(NS(=O)(=O)c2ccc(Cl)cc2)C3)cc2ccccc21 (stereo not given) | 1.16 µM
52 | CCOC(=O)n1c(-c2ccc3c(c2)CC(NS(=O)(=O)c2ccccc2)C3)cc2ccccc21 (stereo not given) | 1.6 µM
53 | CC(C)(C)OC(=O)n1c(-c2ccc3c(c2)CC(NS(=O)(=O)c2ccccc2)C3)cc2ccc(O)cc21 (stereo not given) | 0.67 µM
54 | O=C(CC1CC1)n1c(-c2ccc3c(c2)CC(NS(=O)(=O)c2ccccc2)C3)cc2ccccc21 (stereo not given) | 1.16 µM
55 | COc1ccc(Cn2c(-c3ccc4c(c3)CC(NS(=O)(=O)c3ccccc3)C4)cc3ccccc32)cc1 (stereo not given) | > 30 µM
56 | Cc1cccc(S(=O)(=O)NC2Cc3ccc(-c4cc5ccccc5n4C(=O)OC(C)(C)C)cc3C2)c1 (stereo not given) | 1.33 µM
57 | CC(C)(C)OC(=O)n1c(-c2ccc3c(c2)CC(NS(=O)(=O)c2cccc(Cl)c2)C3)cc2ccccc21 (stereo not given) | 1.81 µM
58 | COc1ccccc1C(=O)NC1Cc2ccc(-c3cc4ccccc4n3C(=O)OC(C)(C)C)cc2C1 (stereo not given) | 0.47 µM
59 | CC(C)(C)OC(=O)n1c(-c2ccc3c(c2)CC(NS(=O)(=O)c2ccccc2)C3)cc2cc(C#N)ccc21 (stereo not given) | 26 µM
60 | CC(C)(C)OC(=O)Cn1c(-c2ccc3c(c2)CC(NS(=O)(=O)c2ccccc2)C3)cc2ccccc21 (stereo not given) | > 30 µM

tested on: THP-1; assay: Ratio of induction of cholesterol efflux in THP1 cells at 10 uM to control after 18 hrs; assay type: functional, Homo sapiens; conditions: not given

Row | Structure (SMILES) | Ratio
61 | O=C(O)Cc1cccc(OCCCN(Cc2cccc(C(F)(F)F)c2Cl)CC(c2ccccc2)c2ccccc2)c1 | 1.8

tested on: THP-1; assay: Ratio of induction of ABCA1 gene expression in THP1 cells at 10 uM to control; assay type: functional, Homo sapiens; conditions: not given

Row | Structure (SMILES) | Ratio
62 | O=C(O)Cc1cccc(OCCCN(Cc2cccc(C(F)(F)F)c2Cl)CC(c2ccccc2)c2ccccc2)c1 | 10.7

tested on: THP-1; assay: Induction of cholesterol efflux in THP1 cells after 18 hrs; assay type: functional, cell-based; conditions: Homo sapiens, THP-1, 18 h

Row | Structure (SMILES) | EC50
63 | O=C(O)Cc1cccc(OCCCN(Cc2cccc(C(F)(F)F)c2Cl)CC(c2ccccc2)c2ccccc2)c1 | 0.01 µM
64 | O=S(=O)(c1ccccc1)N(CC(F)(F)F)c1ccc(C(O)(C(F)(F)F)C(F)(F)F)cc1 [T091317] | 0.033 µM

target: T2, Oxysterols receptor LXR-alpha (Homo sapiens, UniProt Q13133); assay: Agonist activity at LXRalpha LBD by HTRF cofactor peptide recruitment assay; assay type: functional; conditions: not given
T2 sequence (Q13133 whole entry): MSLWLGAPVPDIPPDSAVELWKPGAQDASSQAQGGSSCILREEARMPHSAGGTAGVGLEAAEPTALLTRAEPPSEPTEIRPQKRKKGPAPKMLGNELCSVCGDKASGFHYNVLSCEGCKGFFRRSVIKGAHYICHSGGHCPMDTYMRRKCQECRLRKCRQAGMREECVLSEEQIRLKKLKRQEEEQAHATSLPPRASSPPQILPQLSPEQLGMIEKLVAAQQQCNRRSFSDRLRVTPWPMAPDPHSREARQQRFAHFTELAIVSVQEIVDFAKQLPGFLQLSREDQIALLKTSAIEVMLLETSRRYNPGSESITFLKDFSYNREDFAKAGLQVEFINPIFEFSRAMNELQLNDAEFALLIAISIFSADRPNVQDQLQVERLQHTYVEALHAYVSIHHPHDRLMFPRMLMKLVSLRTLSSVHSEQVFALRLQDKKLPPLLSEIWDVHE

Row | Structure (SMILES) | EC50
65 | O=C(O)Cc1cccc(OCCCN(Cc2cccc(C(F)(F)F)c2Cl)CC(c2ccccc2)c2ccccc2)c1 | 0.367 µM
